These compounds were tested against Glycogen synthase kinase-3 beta (Homo sapiens, UniProt P49841) (assay: concentration-response blocking of human GSK3B – biochemical, luminescence, cell-free homogeneous, retest, dose response (AID 434954)).
Sequence of Glycogen synthase kinase-3 beta (P49841 whole entry): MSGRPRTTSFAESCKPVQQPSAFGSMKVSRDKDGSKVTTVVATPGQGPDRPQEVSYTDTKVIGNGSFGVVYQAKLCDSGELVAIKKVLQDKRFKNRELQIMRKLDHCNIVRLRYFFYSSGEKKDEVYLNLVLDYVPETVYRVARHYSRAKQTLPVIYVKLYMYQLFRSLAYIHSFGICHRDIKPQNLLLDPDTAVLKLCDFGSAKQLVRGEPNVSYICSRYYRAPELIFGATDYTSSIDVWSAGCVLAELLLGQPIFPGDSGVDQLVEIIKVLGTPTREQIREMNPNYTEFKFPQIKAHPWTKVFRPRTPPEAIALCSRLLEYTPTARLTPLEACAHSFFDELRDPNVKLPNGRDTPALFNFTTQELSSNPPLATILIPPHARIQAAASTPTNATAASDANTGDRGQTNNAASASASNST

Structure (SMILES)	EC50 [µM]
O=C(CN1CCN(Cc2ccccc2Cl)CC1)NN=Cc1ccccn1	51.5
c1ccc(-n2cnnc2SCc2cn3cccnc3n2)cc1 [2-(4-Phenyl-4H-[1,2,4]triazol-3-ylsulfanylmethyl)-imidazo[1,2-a]pyrimidine]	> 300
O=c1cc(-c2ccccc2)c2c(O)cc(O)cc2o1	7.82
COC(=O)C1=C(C)N(Cc2ccccc2)C(NCc2ccc(OC)cc2)=N[C@H]1c1cccc(F)c1 [MLS000829932]	> 300
CCC(=O)Nc1nn(CC(C)C)c2nc3ccc(C)cc3cc12 [N-[6-methyl-1-(2-methylpropyl)pyrazolo[3,4-b]quinolin-3-yl]propanamide]	> 300
COc1ccc(S(=O)(=O)CC(=O)c2cc3cccc(C)c3oc2=O)cc1 [SMR000634140]	> 300
Cc1cccc(Nc2nc(N)c([N+](=O)[O-])c(NCc3ccco3)n2)c1 [SMR000220105]	8.4
O=C(O)c1ccc(N=NCc2ccc(-c3cccc(Cl)c3)o2)cc1 [SMR000415894]	> 300
COc1ccc2nc(C)cc(Nc3ccc(N4CCN(C)CC4)cc3)c2c1	> 300
COc1ccc2oc3cc(C)[n+]([O-])c(-c4ccc(Cl)cc4)c3c2c1 [MLS000588178]	12.7
Cc1ccc(-c2oc3ccccc3c(=O)c2O)cc1 [MLS000114653]	> 300
COc1cc(/C=N/NC(=O)c2ccc(Cl)cc2)ccc1Oc1ccc([N+](=O)[O-])cn1	> 300
C=CCNc1nc(N)c([N+](=O)[O-])c(Nc2ccccc2OC)n1 [4-N-(2-methoxyphenyl)-5-nitro-2-N-prop-2-enylpyrimidine-2,4,6-triamine]	> 300
COc1cccc2cc(CC(=O)c3ccc(C)cc3C)c(=O)oc12 [3-[2-(2,4-dimethylphenyl)-2-oxoethyl]-8-methoxychromen-2-one]	> 300
CC(C)=CCc1c(O)cc2c(c1O)C(=O)CC(c1ccccc1)O2 (centres undefined) [MLS000697639]	> 300
Cc1nn(-c2ccccn2)c2c1C(c1ccncc1)C1C(=O)CC(C)(C)CC1=N2 (centres undefined) [SMR000152057]	> 300
O=C(Cc1ccccc1)Nc1ccc(N2CCOCC2)cc1 [MLS000707957]	> 300
COc1ccc(C(=O)ON=C(C)c2cccs2)cc1 [MLS000544771]	13.9
COc1cc(/C=N/NC(=O)c2ccccc2F)ccc1Oc1ccc([N+](=O)[O-])cn1 [MLS000779573]	> 300
O=[N+]([O-])c1cc(Cl)ccc1N1CCCC1 [SMR000284754]	> 300
CCOC(=O)c1c(C)oc2c(CC(=O)c3ccccc3)c(Cl)c(O)c(O)c12 [ethyl 6-chloro-4,5-dihydroxy-2-methyl-7-phenacyl-1-benzofuran-3-carboxylate]	> 300
Cc1ccc(C(=O)N/N=C/c2ccc(-c3ccc([N+](=O)[O-])cc3)o2)cn1 [SMR000431371]	> 300
CCCCOC(=O)c1ccc(O)cc1 [butyl 4-hydroxybenzoate]	> 300
COc1ccc(COC(=O)C2C(C)=NC(=O)NC2c2ccc(O)c(OC)c2)cc1 (centres undefined) [4-(4-hydroxy-3-methoxyphenyl)-6-methyl-2-oxo-3,4-dihydro-1H-pyrimidine-5-carboxylic acid (4-methoxyphenyl)methyl ester]	> 300
CC(=O)Nc1nnc(CSCc2ccc(F)cc2)s1 [N-[5-[(4-fluorophenyl)methylsulfanylmethyl]-1,3,4-thiadiazol-2-yl]acetamide]	> 300
CC(NCCC(Cc1ccccc1)c1ccco1)c1ccccc1 (centres undefined) [SMR000294034]	> 300
CCCc1cc(C(=O)Nc2cc(Br)ccc2O)no1 [MLS000116375]	> 300

Structure (SMILES)	EC50 [µM]
Cc1ccc(C=NNC(=O)COc2ccc(C)cc2[N+](=O)[O-])cc1 [2-(4-methyl-2-nitrophenoxy)-N'-[(1Z)-(4-methylphenyl)methylene]acetohydrazide]	> 300
O=C1NC(c2cccs2)Nc2sc3c(c21)CCCC3 (centres undefined) [2-thiophen-2-yl-2,3,5,6,7,8-hexahydro-1H-[1]benzothiolo[2,3-d]pyrimidin-4-one]	> 300
COc1ccc2nc(C)cc(N3CCOCC3)c2c1 [4-(6-methoxy-2-methyl-4-quinolinyl)morpholine]	> 300
CC1CN(C(=O)CCCN2C(=O)c3ccccc3C2=O)CC(C)O1 (centres undefined) [2-[4-(2,6-dimethylmorpholin-4-yl)-4-oxobutyl]isoindole-1,3-dione]	> 300
Cc1ccnc(NC(=O)c2ccc([N+](=O)[O-])o2)c1 [5-nitro-N-(4-methyl-2-pyridinyl)-2-furamide]	> 300
N#Cc1c(O)nc(-c2ccncc2)nc1-c1ccccc1 [4-oxidanylidene-6-phenyl-2-pyridin-4-yl-1H-pyrimidine-5-carbonitrile]	> 300
Cc1cccc(NC(=O)CSc2nc(O)c(C#N)c(-c3ccccc3)n2)c1C [SMR000161905]	> 300
COc1cccc(NC(=O)NNS(=O)(=O)c2ccc(OC)cc2OC)c1 [SMR000679286]	> 300
O=C1Nc2ccccc2C1=Cc1cnc[nH]1 [SMR000180717]	2.99
COc1ccc(-c2nn(-c3ccccc3)cc2C=Nn2c(O)csc2=S)cc1 [MLS000558856]	> 300
Oc1ccc(CN=Nc2ncnc3nc[nH]c23)cc1 [SMR000320358]	> 300
N#Cc1c(-c2ccccc2)nc(SCC(=O)N(c2ccccc2)c2ccccc2)[nH]c1=O [2-[(5-cyano-6-oxo-4-phenyl-1,6-dihydro-2-pyrimidinyl)thio]-N,N-diphenylacetamide]	> 300
CC(=O)c1sc(NC(=O)CCNC(=O)c2ccco2)nc1-c1ccccc1	3.03
Cc1nonc1-c1nnc(-c2nonc2N)[nH]1 [SMR000040798]	29.7
COc1ccc(OC)c(C(O)c2coc3ccc(O)c(CN(C)C)c23)c1 (centres undefined)	> 300
Cc1nc(N2CCOCC2)nc(N2CCCCC2C)c1[N+](=O)[O-] (centres undefined) [MLS001012395]	> 300
CCOC(=O)COn1c(=O)c(-c2cccs2)[n+]([O-])c2ccccc21	> 300
O=c1oc(-c2cccs2)nc2sc3c(c12)CCCC3 [SMR000116853]	> 300
O=C(NN=Cc1cc(Br)ccc1O)c1ccccc1Cl [N'-[(E)-(3-bromo-6-oxocyclohexa-2,4-dien-1-ylidene)methyl]-2-chlorobenzohydrazide]	> 300
CCn1c(COc2ccccc2)nnc1SCC(=O)NC1CC1	> 300
CC(=O)c1cccc(Nc2nc(-c3ccccc3)nc3ccccc23)c1 [SMR000516691]	> 300
O=[N+]([O-])c1cc(-c2nc(-c3ccncc3)no2)ccc1Cl [MLS000331762]	> 300
O=C(CCS(=O)(=O)c1ccccc1)Nc1ncc([N+](=O)[O-])s1 [SMR000605858]	> 300
CCCCc1cc(=O)oc2cc(C)cc(OCC(=O)O)c12 [2-(4-butyl-7-methyl-2-oxochromen-5-yl)oxyacetic acid]	> 300
C[O+]=N[CH-]c1ccc(N2CCOCC2)c([N+](=O)[O-])c1 [N-methoxy-1-(4-morpholin-4-yl-3-nitro-phenyl)methanimine]	> 300
O=C(NCC(c1ccco1)N1CCN(c2ccc(F)cc2)CC1)c1ccc2c(c1)OCO2 (centres undefined) [N-[2-[4-(4-fluorophenyl)-1-piperazinyl]-2-(2-furanyl)ethyl]-1,3-benzodioxole-5-carboxamide]	> 300
Cc1ccc(CNS(=O)(=O)c2c(C)[nH]c(=O)[nH]c2=O)cc1 [MLS001200136]	> 300

Reference: BindingDB's records for doi:10.7270/Q2TX3CTT (Broad Institute, 2010)
